Laboratory results as given in paper PMC13327620, “A Deep‐Red‐Absorbing Osmium(II) Complex as a Photosensitizer for Photodynamic Therapy Inducing Immunogenic Cell Death” (Angewandte Chemie (International Ed. in English), 2026).
Like-named read-outs stand apart in the source and are kept apart here.

What was measured:
[1] = tested on: human glioblastoma cells (U-87 MG); assay: Resazurin cell viability assay, (photo)cytotoxicity, normoxia; assay type: cell-based; conditions: for IC50: Homo sapiens
Procedure: (100 U ml−1), streptomycin (100 U ml−1), and 1% L-glutamine. […]
All cells were incubated at 37 °C in a humidified atmosphere with 5 % CO2.
Normoxia. The in vitro viability of cells exposed to the complexes was determined using a resazurin assay. C ells were seeded in 96-well plates at densities of 4,000 cells/well for CT26, MC A205 and U-87 MG cells, and 8,000 cells/well for MRC-5 and NIH/3T3 cells. A fter 24 h of growth at 37 °C wit h 5% CO2, the medium was replaced with fresh medium containing various concentrations of the compounds . Following a 4- h incubation in the dark, the medium was refres hed , and the plates were exposed to irradiation usinga LUM OS -BIO photoreactor (At las Photonics).N on- ir rad iated plates were similarly refr eshed with medium and kept in the dark for the same duration. After a 40- h r ecov ery period, a f reshly pr epar ed resazurin solution (0.2 mg/mL) was added to each well, and the plates were left in the dark for 4 h before analysis on a B i o Te k Cytation 5 Cell Imaging Multimode Reader (Agil ent Technologies). […]

[2] = Photostability by UV-vis absorption in PBS with 10% FBS; assay type: physicochemical; conditions: 10% FBS in PBS, 50 μM
Excerpt: Photostability is a crucial parameter for PSs, as it has a significant impact on their phototoxicity. Based on the results of our in vitro phototoxicity studies, and in view of future in vivo experiments, we decided to investigate the stability of Os2 and Ce6 under deep‐red illumination. Therefore, we monitored the UV–vis absorption spectra of Os2 and Ce6 in biological media (10% FBS in PBS, phosphate‐buffered saline) using a 740 nm excitation wavelength for one hour and a 770 nm excitation wavelength for 2 h, with the duration of light exposure kept consistent with in vitro phototoxicity tests. […]
software Fluofit (PicoQuant GmbH, BERLIN, Germany) based on iterative reconvolution using a Levensberg- M arquandt alg oritm, enabling the obtention of multi-exponential profiles (m ainly one or two exponenti als in our cases ).
Compound Os2 and Ce6 were dissolved in biologically relevant media (PBS solution with 10% FBS) at 50 μ M from the stock solution (10 m M in DMSO). The UV -Vi s spectrum of each complex was recorded from 300 nm to 900 nm at 10- or 20- minutes intervals using BioTek Cytation 5 Cell Imaging Multimode Reader (Agilent […]
The hydrodynamic diameter was determined using dynamic light scattering (DLS, Malvern ZetaSizer Nano ZS) at 25 ℃ . PBS with 10% FBS solutions were filtered through a 0.22 µM membrane before use. […]

calreticulin (ecto‐CRT) = assay: Immunofluorescence staining of cell surface calreticulin in CT26 cells; assay type: cell-based, mouse; conditions: CT26, 740 nm light
Procedure: Next, translocation of ER‐resident calreticulin (endo‐CRT) to the cell surface (ecto‐CRT) was measured by confocal microscopy following treatments with Ce6 or Os2 exposed to 740 or 770 nm illumination (Figure 3B,D). In this experiment, cells were fixed but not permeabilized before CRT staining to label only the ecto‐CRT, which is present at the cell surface. […]
concentrations and incub ated for 4 h in the dark. Following the 4 h dark incubation with Os2, wells containing the compound were replaced with the medium containing the selective ROS s caveng ers: 5 mM sodium azide (NaN₃) for singlet oxygen (¹O₂) or 50 mM D-mannitol for hydroxyl radicals (•OH). […] Cell viability was assessed using a 0.2 mg/mL resazurin solution incubated in the dark for 4 h, and fluorescence was measured on a BioTek Cytation 5 Cell Imaging Multimode […]
Singlet oxygen and hydroxyl r adical generation k inetics of Os2 in s olution The generation of singlet oxygen (¹O₂) and hydroxyl radicals (•OH) by Os2 in solution was evalu ated using AB DA (100 μ M) and HPF (5 μ M) as probes, respectively. […] AB DA absorban ce d ecay was monitored to track ¹O₂ gener ation, while HPF fluorescence increas e (λex = 490 nm; λ em = 500-700 nm) was measured to track •OH formation. Control solutions without Os2 wer e measured under the same conditions to account for background signals. […]

C=Cc1c(C)c2cc3nc(c(CC(=O)O)c4[nH]c(cc5nc(cc1[nH]2)C(C)=C5CC)c(C)c4C(=O)O)[C@@H](CCC(=O)O)[C@@H]3C [Ce6, chlorin e6] gave a PI ([1]; 740 nm) of 28, a PI ([1]; 770 nm) of 8 and an IC50 ([1]; dark, read-out: IC50 Dark) of 116 ± 6.99 µM. For the same compound, the IC50 ([1]; light or radiation study, 1 h, 740 nm, 1.12 mW/cm2, 60 min, 12.60 J/cm2, read-out: IC50 740 nm) was 4.15 ± 0.06 µM, the IC50 ([1]; light or radiation study, 2 h, 770 nm, 0.68 mW/cm2, 120 min, 15.30 J/cm2, read-out: IC50 770 nm) was 14 ± 3.14 µM and the “Photostability (UV-vis absorption spectrum)” value ([2]; 740 nm excitation, 1 h, 12.60 J/cm2) was “decreased by nearly half after 50 min”. The “Photostability (UV-vis absorption spectrum)” value ([2]; 770 nm excitation, 2 h, 15.30 J/cm2) was “did not change” and the “ecto‐CRT signal” value (calreticulin (ecto‐CRT)) was “weaker, but clearly visible”.
